SMILES strings stand for the structures. Some results are limits rather than exact numbers.

Common to all, as to assay: MIC, agar dilution / broth microdilution
Holding throughout (assay type): cell-based
Details in all cases: mainly agar dilution; g/l of material; for Copper MIC refers to concentration of copper

The subject of one test is Fusarium solani. Here is the method: (§1) The antimicrobial activity of organic-inorganic hybrid materials of the present invention was evaluated through in vitro test of antimicrobial susceptibility with broth microdilution method and agar dilution method (CLSI protocol—Clinical and Laboratory Standards Institute). […] Agar dilution assay was used: the organic-inorganic hybrid materials were incorporated at different concentrations into the agar medium (specific for each microorganism) and after solidification of the medium, the inoculum (10^4 CFU/ml for the fungi and […] for the bacteria) was applied to the agar surface. Broth microdilution assay: the organic-inorganic hybrid materials were diluted into specific liquid media in the presence of a well-defined microbial suspension (10^4 CFU/ml for the fungi and […] for the bacteria). In the broth microdilution assay, the organic-inorganic hybrid materials were diluted into specific liquid media, but they resulted insoluble with the formation of precipitates on the bottom of the wells, consequently the MIC were mainly determinate with agar dilution assay. Two controls were prepared for the tests: a positive control of activity through use of Miconazole (against fungi) and Ceftriaxone (against bacteria). All the tests have been carried out in triplicate, giving very similar inhibition results. In parenthesis, the concentration (g/l) of copper relative to the corresponding copper-lignin derivative. For copper sulphate pentahydrate (copper) and copper hydroxide (copper 2) the MIC refer to the concentration of copper (g/l): […]

A further test has as its system Candida albicans. On the procedure:
as §1

Another test relates to Escherichia coli. Here is the method:
as §1

The test system of another test is Salmonella enteriditis. On the procedure:
as §1

The test system of test [1] is Xanthomonas arboricola pv. pruni. On the procedure: as §1
A further test deals with Septoria tritici. Here is the method:
as §1

The test system of the next test is Rizoctonia solani. On the procedure: as §1
For the next test, the system named is Alternaria solani. Here is the method: as §1
Another test concerns Erwinia amylovora. On the procedure: as §1
Another test deals with Pseudomonas aeruginosa. On the procedure: as §1
The next test deals with Monilia laxa. Here is the method: as §1
The next test concerns Botritis cinerea. Here is the method:
as §1

Test [2] relates to Pseudomonas syringae pv. actinidiae. On the procedure:
as §1

In the next test the test system is Staphylococcus aureus. Here is the method: as §1
For the next test, the system named is Campylobacter jejuni. On the procedure: as §1
For another test, the system named is Xanthomonas campestris. On the procedure: as §1

For the compound `[Cu+2].[OH-].[OH-]` [Copper, Copper hydroxide], the “MIC (g/l) F. solani” value against Fusarium solani was found to be 10.4 g/L. In addition, the “MIC (g/l) C. albicans” value in the test with Candida albicans turned out to be 1.30 g/L. In the test on Escherichia coli, the “MIC (g/l) E. coli” value is 0.32 g/L. In the test with Salmonella enteriditis, the “MIC (g/l) S. enteridis” value worked out at 0.65 g/L. Besides, the “MIC (g/l) X. arboricola” value in test [1] was less than 0.16 g/L. The “MIC (g/l) S. tritici” value in the test with Septoria tritici was 0.65 g/L. Moreover, the “MIC (g/l) R. solani” value in the test on Rizoctonia solani amounted to 0.32 g/L. Besides, the “MIC (g/l) A. solani” value against Alternaria solani amounted to 5.2 g/L. In addition, in the test with Erwinia amylovora, the “MIC (g/l) E. amylovora” value was 0.65 g/L. Further, the “MIC (g/l) P. aeruginosa” value with Pseudomonas aeruginosa stood at 1.30 g/L. Moreover, the “MIC (g/l) M. laxa” value with Monilia laxa is 0.65 g/L. Besides, the “MIC (g/l) B. cinerea” value in the test with Botritis cinerea came out at 5.2 g/L. The “MIC (g/l) P. syringae” value in test [2] came to 0.32 g/L. The “MIC (g/l) S. aureus” value against Staphylococcus aureus is 0.32 g/L. In addition, the “MIC (g/l) C. jejuni” value against Campylobacter jejuni is less than 0.16 g/L. In the test with Xanthomonas campestris, the “MIC (g/l) X. campestris” value was 0.32 g/L.
